Key:
BAM7 + Foretinib = compound: CCOC1=CC=CC=C1N=NC2=C(NN(C2=O)C3=NC(=CS3)C4=CC=CC=C4)C [BAM7] + COc1cc2c(Oc3ccc(NC(=O)C4(C(=O)Nc5ccc(F)cc5)CC4)cc3F)ccnc2cc1OCCCN1CCOCC1 [Foretinib] (partner 0.25 µM); test: relative viability (nuclei count vs DMSO), 5 days (fraction); higher = more cells survive
Procedure, shortened: (§1)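 Lung cancer cell lines, seeded in 1536-well plates, were treated the following day by pin tool with a single drug or with five library-drug doses (not always all listed) in √10 steps on top of a fixed anchor-drug dose. Cells were fixed and nuclei stained in one step after 5 days, and nuclei were counted. Relative viability is the nuclei count for treated wells divided by that for vehicle wells, reported as medians of duplicate plates.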

[1] = compound: CCn1c(-c2nonc2N)nc2c(C#CC(C)(C)O)ncc(OC[C@H]3CCCNC3)c21 + Cc1cc(Nc2cc(N3CCN(C)CC3)nc(Sc3ccc(NC(=O)C4CC4)cc3)n2)n[nH]1 [Tozasertib] (partner 0.1 µM); test: as above
Procedure, shortened: as §1

Row | Cell Line | relative viability (BAM7 + Foretinib; first compound 0.5 µM) | relative viability (BAM7 + Foretinib; first compound 5 µM) | relative viability (BAM7 + Foretinib; first compound 15.81 µM) | relative viability (BAM7 + Foretinib; first compound 50 µM) | relative viability ([1]; first compound 0.01 µM) | relative viability ([1]; first compound 0.03162 µM) | relative viability ([1]; first compound 0.1 µM) | relative viability ([1]; first compound 0.3162 µM) | relative viability ([1]; first compound 1 µM)
1 | NCI-H441 | 1.09 | 1.13 | 0.767 | 1.14 | 0.699 | 0.53 | 0.538 | 0.57 | 0.56
2 | EPLC-272H | 0.653 | – | 0.632 | 0.811 | 0.337 | 0.512 | 0.261 | 0.186 | 0.274

Reference: the supplement of paper PMC10307832
